Data from PMC4569058, “High-Throughput Screening for Ligands of the HEPN Domain of Sacsin” (PLoS ONE, 2015).
“And” between values parts separate entries of the source, which are not always exact repeats. Equal entries are not always repeated.

How the values were obtained:
Type in all cases: binding
[1] = molecular target: T1, HEPN domain of sacsin (GST-HEPN) (Homo sapiens, UniProt Q9NZJ4); assay: FP competition assay (displacement of F12-ATP from GST-HEPN)
T1 construct: The HEPN domain (residues 4441–4579) was purified as in Kozlov et al; made in house; host or cells: E. coli BL21
T1 sequence (Q9NZJ4 4441-4579): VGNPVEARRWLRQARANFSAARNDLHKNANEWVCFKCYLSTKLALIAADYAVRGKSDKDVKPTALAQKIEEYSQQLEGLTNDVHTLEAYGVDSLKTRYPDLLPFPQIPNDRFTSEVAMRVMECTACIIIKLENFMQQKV
Protocol: […] The probe concentration was chosen to be the minimum concentration required to generate a sigmoidal binding curve. […] Next, a serial dilution of the competitor compounds (nucleotides and nucleotide analogs) starting at 10 mM were added. The fluorescence polarization signal in each well was measured on a SpectraMax M5e Microplate Reader.

[2] = molecular target: T2, 15N-HEPN (sacsin HEPN domain) (Homo sapiens, UniProt Q9NZJ4); assay: 1H-15N HSQC NMR titration; details: 100-400 μM 15N-HEPN, 20 mM Bis-tris pH 6.50, 70 mM NaCl, 303 K
T2 construct: The HEPN domain (residues 4441–4579) was purified as in Kozlov et al; GST (N, cleaved yes); made in house; host or cells: E. coli BL21 (M9 minimal medium with 15NH4Cl)
T2 sequence (Q9NZJ4 4441-4579): T1 sequence (Q9NZJ4 4441-4579)
Protocol: Between 100 μM and 400 μM ^15N-HEPN were used for NMR titration experiments. Heteronuclear single quantum correlation (HSQC) spectra were acquired in 20 mM Bis-tris pH 6.50 and 70 mM NaCl at 303 K using Varian 800 MHz or Bruker 600 MHz NMR spectrometers. The data were processed by NMRPipe. NMR spectra were then generated and analyzed by NMRView. The 2D HSQC spectra were overlaid with previously assigned spectrum of HEPN. The combined chemical shift perturbations in the ^1H and ^15N dimensions of each peak, calculated as (ΔδH ^2 + (0.2 × ΔδN)^2)^0.5, were plotted against the residue number.

[3] = molecular target: T1, HEPN domain of sacsin (GST-HEPN); assay: FP titration assay (fluorescent ATP probe vs GST-HEPN); details: for Kd: 20 mM Bis-tris pH 6.50, 100 mM NaCl
Protocol: N-methylanthraniloyl 8[(4-amino)butyl]-amino-ATP (MABA-ATP) and fluorescein-12-ATP (F12-ATP) were purchased from Jena Bioscience and PerkinElmer, respectively. The excitation and emission wavelengths of MABA-ATP were reported to be 335 nm and 440 nm, and those of F12-ATP were reported to be 496 nm and 517 nm by the commercial suppliers. The optimal excitation and emission wavelengths were determined under FP assay conditions using 0.2 μM MABA-ATP and 3.3 nM F12-ATP in 100 mM NaCl, 20 mM Bis-tris, pH 6.5.
(§1) A fixed concentration of the probe (0.5 μM MABA-ATP or 5 nM F12-ATP) was put in each well followed by a serial dilution of GST-HEPN starting at 10 μM. The assay was conducted in 20 mM Bis-tris pH 6.50 and 100 mM NaCl and the final volume in each well was 100 μl. The total fluorescence and fluorescence polarization signals of each well were recorded on a SpectraMax M5e Microplate Reader at the optimal excitation and emission wavelengths of the probes. A titration curve was generated by plotting the fluorescence polarization signals as milli-polarization units (mP) against a log scale of GST-HEPN concentration (μM).

[4] = molecular target: GST (Schistosoma japonicum, UniProt P08515); assay: GST control FP titration; details: 0.5 μM MABA-ATP or 5 nM F12-ATP titrated against GST
Protocol: as §1
Supplementary file pone.0137298.s002.tif: S2 Fig GST control titration. 0.5 μM MABA-ATP and 5 nM F12-ATP were titrated against various concentrations of GST to verify whether GST contributes to the observed FP signal in the presence of GST-HEPN. […] (TIF) Click here for additional data file.

[5] = 5 nM F12-ATP and 120 nM GST-HEPN, read-out: affinity for GST-HEPN estimated from FP competition curve, Kd
[6] = HTS hit confirmation, 5 nM F12-ATP and 200 nM GST-HEPN, read-out: Binding Affinity for HEPN

Chain of GST (P08515 whole entry): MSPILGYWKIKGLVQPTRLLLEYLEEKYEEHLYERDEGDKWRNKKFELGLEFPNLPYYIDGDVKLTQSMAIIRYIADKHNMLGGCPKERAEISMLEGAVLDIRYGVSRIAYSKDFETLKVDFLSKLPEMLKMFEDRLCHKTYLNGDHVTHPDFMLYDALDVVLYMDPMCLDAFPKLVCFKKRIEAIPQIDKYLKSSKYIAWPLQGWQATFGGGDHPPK

Molecule	Kd [1, 5]	binding to HEPN observed by NMR (chemical shift perturbations) [2]	other results
Nc1ncnc2c1ncn2C1OC(COP(=O)(O)OP(=O)(O)OCC2OC(O)C(O)C2O)C(O)C1O (stereo not drawn) [ADP-ribose, adenosine 5´-diphosphoribose]	205 µM		
O=c1c(C(c2ccc3c(c2)OCO3)c2c(O)nc3n(c2=O)CCS3)c(O)nc2n1CCS2 [AN670]		Binding was observed by NMR	fold higher affinity than the other two HTS hits AK968 and AN652 [1]: two- to three-fold; Kd [1, 6]: 1.1 µM
Nc1nc2c(ncn2[C@@H]2O[C@H](COP(=O)(O)OP(=O)(O)OP(=O)(O)OP(=O)(O)O)[C@@H](O)[C@H]2O)c(=O)[nH]1 [G-tetra-P, guanosine 5´-tetraphosphate]	0.47 µM	Changes in chemical shifts were observed for most GTP-binding residues	fold higher affinity for HEPN than GTP [1]: about two-fold
Cc1ccccc1NS(=O)(=O)c1ccc(NC(=O)c2n[nH]c([N+](=O)[O-])c2Br)cc1 [AK968]		Binding was observed by NMR	Kd [1, 6]: 2.1 µM
Nc1ncnc2c1ncn2[C@@H]1O[C@H](COP(=O)(O)OP(=O)(O)OP(=O)(O)OP(=O)(O)OC[C@H]2O[C@@H](n3cnc4c(N)ncnc43)[C@H](O)[C@@H]2O)[C@@H](O)[C@H]1O [Ap4A, p1,-p4-di(adenosine-5´) tetraphosphate]	20.5 µM		
Nc1nc2c(ncn2[C@@H]2O[C@H](COP(=O)(O)OP(=O)(O)OP(=O)(O)O)[C@@H](O)[C@H]2O)c(=O)[nH]1 [GTP, guanosine 5´-triphosphate]	0.81 µM	binds to HEPN at its dimerization surface	fold higher affinity relative to ATP [1]: approximately 6 fold
Nc1ncnc2c1ncn2[C@@H]1O[C@H](COP(=O)(O)OP(=O)(O)O)[C@@H](O)[C@H]1O [ADP, adenosine 5´-diphosphate]	19.2 µM		
Nc1nc2c(ncn2[C@@H]2O[C@H](COP(=O)(O)OP(=O)(O)O)[C@@H](O)[C@H]2O)c(=O)[nH]1 [GDP, guanosine 5´-diphosphate]	1.23 µM		
CC(C)(COP(=O)(O)OP(=O)(O)OC[C@H]1O[C@@H](n2cnc3c(N)ncnc32)[C@H](O)[C@@H]1OP(=O)(O)O)[C@@H](O)C(=O)NCCC(=O)NCCS [CoA, coenzyme A]	5.2 µM		
Nc1nc2c(ncn2[C@@H]2O[C@H](COP(=O)(O)OP(=O)(O)OP(=O)(O)OP(=O)(O)OC[C@H]3O[C@@H](n4cnc5c(=O)[nH]c(N)nc54)[C@H](O)[C@@H]3O)[C@@H](O)[C@H]2O)c(=O)[nH]1 [Gp4G, p1, p4-di(guanosine-5´) tetraphosphate]	1.23 µM		
CNc1ccccc1C(=O)NCCCCNc1nc2c(N)ncnc2n1[C@@H]1O[C@H](COP(=O)(O)OP(=O)(O)OP(=O)(O)O)[C@@H](O)[C@H]1O [MABA-ATP, N-methylanthraniloyl 8[(4-amino)butyl]-amino-ATP]			Kd ([3]; 0.5 μM MABA-ATP titrated against GST-HEPN, read-out: binding affinity of the probe estimated from the titration curve): ~3 µM and 3 µM; binding of probe to GST alone [4]: did not show binding
fluorescein-12-ATP [F12-ATP]		interacts with all HEPN residues involved in GTP-binding	Kd ([3]; 5 nM F12-ATP titrated against GST-HEPN, read-out: binding affinity of the probe estimated from the titration curve (KD1)): 0.078 µM and ~0.078 µM; fold decrease in affinity upon the addition of MgCl2 ([3]; F12-ATP vs GST-HEPN titration in the presence of 1 mM MgCl2 compared to without MgCl2): 10 fold; fold higher affinity relative to ATP [1]: 65 fold; binding of probe to GST alone [4]: did not show binding
O=C(OCCCl)Oc1c(Br)cc2sc(=O)oc2c1Br [AG205]			Kd [1, 6]: 9.4 µM
Nc1ncnc2c1ncn2[C@@H]1O[C@H](COP(=O)(O)O)[C@@H](O)[C@H]1O [AMP, adenosine 5´-monophosphate]	102 µM		
O=P(O)(O)OC1C(OP(=O)(O)O)C(OP(=O)(O)O)C(OP(=O)(O)O)C(OP(=O)(O)O)C1OP(=O)(O)O (stereo not drawn) [IP6, phytic acid/myo-inositol hexakis(dihydrogen phosphate)]	8.46 µM		
Nc1ncnc2c1ncn2[C@@H]1O[C@H](COP(=O)(O)OP(=O)(O)OP(=O)(O)OC[C@H]2O[C@@H](n3cnc4c(N)ncnc43)[C@H](O)[C@@H]2O)[C@@H](O)[C@H]1O [Ap3A, p1, p3-di(adenosine-5´) triphosphate]	51.2 µM		
O=C(O)CN(CCN(CC(=O)O)CC(=O)O)CC(=O)O [EDTA]	~510 µM and 510 µM	interacts with GTP- and malonate ion-binding site	fold weaker affinity than GTP [1]: ~ 500 fold
O=C(Nc1cccc2c(=O)[nH][nH]c(=O)c12)c1ccc(=O)oc1 [AN652]		Binding was observed by NMR	Kd [1, 6]: 2.8 µM
